Measurements published in US4399067A.
≈ marks a conversion by molar mass, not a printed value.

Key:
[1] = test system: Bacillus subtilis ATCC 6633; assay: Agar-plate disc-diffusion test; format: cell-based; conditions: compound at 1 mg/ml, 7-mm disc, 24-48 hours at 25-37° C.
Text: | ^b Grown on minimal nutrient agar

[2] = test system: Staphylococcus aureus X1.1; format: cell-based; conditions: agar-dilution
Text: (§1) The results of the antibacterial testing of a representative compound of formula 1, using the standard agar-dilution test, are summarized in Table II.

[3] = test system: Staphylococcus epidermidis EPI1; format: cell-based; conditions: agar-dilution
Text: as §1

[4] = test system: Staphylococcus epidermidis EPI2; format: cell-based; conditions: agar-dilution
Text: as §1

Streptococcus Group 9960 = format: cell-based; conditions: agar-dilution
Text: as §1

[5] = test system: Streptococcus Group D X66; format: cell-based; conditions: agar-dilution
Text: as §1

[6] = test system: Streptococcus pyogenes C203; format: cell-based; conditions: agar-dilution
Text: as §1

[7] = test system: Staphylococcus aureus V41; format: cell-based; conditions: agar-dilution; penicillin-resistant strain
Text: as §1
^b Pencillinresistant strain

[8] = test system: Staphylococcus aureus X400; format: cell-based; conditions: agar-dilution; methicillin-resistant strain
Text: as §1
^c Methicillinresistant-strain

Staphylococcus aureus = assay: In vivo activity against experimental bacterial infection in mice; conditions: two doses, dose protecting fifty percent of the test animals
Streptococcus pyogenes = assay: as above; conditions: two doses, dose protecting fifty percent of the test animals
[9] = Acute toxicity, intravenous, mice; conditions: mouse, in vivo, administered intravenously to mice

Structure (SMILES)	Size of Zone of Inhibition, B. subtilis ATCC 6633 grown on minimal nutrient agar [1] [mm]	MIC, Staphylococcus aureus X1.1 [2] [µg/mL]	MIC, Staphylococcus epidermidis EPI1 [3] [µg/mL]	MIC, Staphylococcus epidermidis EPI2 [4] [µg/mL]	MIC, Streptococcus Group 9960 (Streptococcus Group 9960) [µg/mL]	MIC, Streptococcus Group D X66 [5] [µg/mL]	MIC, Streptococcus pyogenes C203 [6] [µg/mL]	MIC, Staphylococcus aureus V41 [7] [µg/mL]	MIC, Staphylococcus aureus X400 [8] [µg/mL]	ED50, Staphylococcus aureus, Subcutaneous (Staphylococcus aureus) [mg/kg × 2]	ED50, Streptococcus pyogenes, Oral (Streptococcus pyogenes; oral) [mg/kg × 2]	ED50, Streptococcus pyogenes, Subcutaneous (Streptococcus pyogenes; subcutaneous) [mg/kg × 2]	LD50 [9] [mg/kg]
CCCCCCCCCCCCOc1ccc(C(=O)N[C@@H](Cc2c[nH]c3ccccc23)C(=O)N[C@@H](CC(N)=O)C(=O)N[C@@H](CC(=O)O)C(=O)N[C@@H]2C(=O)NCC(=O)N[C@@H](CCCNC(=O)OC(C)(C)C)C(=O)N[C@@H](CC(=O)O)C(=O)N[C@H](C)C(=O)N[C@@H](CC(=O)O)C(=O)NCC(=O)N[C@H](CO)C(=O)N[C@@H]([C@H](C)CC(=O)O)C(=O)N[C@@H](CC(=O)c3ccccc3N)C(=O)O[C@@H]2C)cc1 [Example 1]	22	–	–	–	–	–	–	–	–	–	–	–	–
CCCCCCCCCCCCOc1ccc(C(=O)N[C@@H](Cc2c[nH]c3ccccc23)C(=O)N[C@@H](CC(N)=O)C(=O)N[C@@H](CC(=O)O)C(=O)N[C@@H]2C(=O)NCC(=O)N[C@@H](CCCN)C(=O)N[C@@H](CC(=O)O)C(=O)N[C@H](C)C(=O)N[C@@H](CC(=O)O)C(=O)NCC(=O)N[C@H](CO)C(=O)N[C@@H]([C@H](C)CC(=O)O)C(=O)N[C@@H](CC(=O)c3ccccc3N)C(=O)O[C@@H]2C)cc1 [Example 2, NTrp -p-(n-dodecyloxy)benzoyl-A-21978C Nucleus]	20	1 (≈ 0.57 µM)	4 (≈ 2.28 µM)	2 (≈ 1.14 µM)	1 (≈ 0.57 µM)	2 (≈ 1.14 µM)	0.25 (≈ 0.142 µM)	1 (≈ 0.57 µM)	2 (≈ 1.14 µM)	3.35	> 200	0.31	67.5
